Reference: publication PMC8267945, “Plumbagin, a Natural Product with Potent Anticancer Activities, Binds to and Inhibits Dihydroorotase, a Key Enzyme in Pyrimidine Biosynthesis” (International Journal of Molecular Sciences, 2021)
Entries after “also recorded” stand apart in the source; their conditions may differ.

Tests used:
huDHOase = target: T1, huDHOase (Homo sapiens, UniProt P27708); assay: rapid spectrophotometric DHOase enzyme assay (hydrolysis of DHO); format: biochemical; conditions: for inhibition of huDHOase (in words): 200 μM for the compounds of Figure 2, AZT concentration not given; for decrease of the activity of huDHOase: 200 μM compound in the standard assay
T1 construct: huDHOase1456-1846-NdeI-N; made in house; host or cells: E. coli BL21(DE3)
T1 sequence (P27708 1456-1846): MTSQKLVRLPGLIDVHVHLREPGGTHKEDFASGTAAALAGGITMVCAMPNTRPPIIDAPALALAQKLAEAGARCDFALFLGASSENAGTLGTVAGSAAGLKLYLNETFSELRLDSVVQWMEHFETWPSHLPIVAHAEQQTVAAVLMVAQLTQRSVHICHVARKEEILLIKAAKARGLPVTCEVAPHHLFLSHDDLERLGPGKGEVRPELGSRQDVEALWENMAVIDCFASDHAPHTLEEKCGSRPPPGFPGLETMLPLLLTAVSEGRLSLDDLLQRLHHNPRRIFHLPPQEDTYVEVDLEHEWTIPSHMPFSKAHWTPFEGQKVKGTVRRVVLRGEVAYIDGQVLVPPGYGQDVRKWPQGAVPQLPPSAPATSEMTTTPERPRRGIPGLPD
Protocol: A rapid spectrophotometric assay was used to determine the activity of DHOase. Briefly, the hydrolysis of DHO was measured at 25 °C as the decrease in absorbance at 230 nm. The purified DHOase was added to a 2 mL solution containing 0.5 mM DHO and 100 mM Tris–HCl at pH 8.0 to start the reaction. […] The hydrolysis of DHO was monitored using a UV/Vis spectrophotometer (Hitachi U 3300; Hitachi High-Technologies, Tokyo, Japan). A unit of activity was defined as the amount of enzyme catalyzing the hydrolysis of 1 μmol DHO/min, and the specific activity was expressed in terms of units of activity per mg of enzyme. The kinetic parameters Km and Vmax were determined from a nonlinear plot by fitting the hydrolyzing rate from individual experiments to the Michaelis–Menten equation (Enzyme Kinetics module of Sigma-Plot; Systat Software, Chicago, IL, USA).

ScDHOase [1] = target: T2, ScDHOase (Saccharomyces cerevisiae, UniProt P20051); assay: fluorescence quenching binding assay; conditions: for quenching of the intrinsic fluorescence of ScDHOase: 200 μM compound, 324 nm, excitation 280 nm
T2 construct: made in house; host or cells: E. coli BL21(DE3)
Protocol: Figure 7 The data used to calculate the Kd values of various DHOases. (A) The fluorescence emission spectra of ScDHOase with PLU of different concentrations (0–200 μM; 0, 10, 20, 50, 75, 100, 125, 150, 175, and 200 μM). The decrease in intrinsic fluorescence of protein was measured at 324 nm upon excitation at 280 nm with a spectrofluorometer. […] (B) The fluorescence emission spectra of huDHOase with PLU of different concentrations (0–200 μM). (C) The fluorescence emission spectra of StDHOase with PLU of different concentrations. (D) The fluorescence emission spectra of ScDHOase–R18A with PLU of different concentrations. (E) The fluorescence emission spectra of ScDHOase–T106A with PLU of different concentrations. […] (F) An aliquot amount of PLU was added to the enzyme solution to determine the Kd. The Kd was obtained by the following equation: ΔF = ΔFmax − Kd(ΔF/[PLU]). Data points are an average of 2–3 determinations within a 10% error.
The decrease in the intrinsic fluorescence of DHOase was measured with a spectrofluorometer (Hitachi F-2700; Hitachi High-Technologies, Japan). The Kd was obtained using the following equation: ΔF = ΔFmax − Kd(ΔF/[PLU]).
The Kd value of the purified DHOase was determined using the fluorescence quenching method as previously described for DHOase, DHPase, and DnaB helicase. Briefly, an aliquot of the compound was added into the solution containing DHOase (1 μM) and 50 mM HEPES at pH 7.0. The decrease in the intrinsic fluorescence of DHOase was measured at 324 nm upon excitation at 280 nm and 25 °C with a spectrofluorometer (Hitachi F-2700; Hitachi High-Technologies, Japan). The Kd was obtained using the following equation: ΔF = ΔFmax − Kd(ΔF/[PLU]).

ScDHOase [2] = target: T2, ScDHOase; conditions: cited from earlier work
Plasmodium falciparum = system: Plasmodium falciparum; design: method as in PMID 2675756; conditions: read-out: concentration giving 50% growth inhibition of parasites; cited from earlier work
4T1 cells [3] = assay: clonogenic formation assay; format: cell-based, mouse; conditions: 5-FU 5 μM
Protocol: A clonogenic formation assay was used to assess the 4T1 cell growth to study whether the PLU can inhibit 4T1 cell proliferation. Briefly, 4T1 cells were seeded at a density of 10^3 cells per well into 6-well plates and incubated overnight for attachment. After different treatments, plates were incubated for 5–7 days to allow clonogenic growth. After washing with PBS, colonies were fixed with methanol and stained with 0.5% crystal violet for 20 min, and the number of colonies was counted under a light microscope.

in vitro = format: cell-based, mouse; conditions: mouse
Protocol: The 4T1 cells (1 × 10^4) were incubated with PLU in a 100 μL volume. After 24 h, the anticancer potentiality was estimated.

4T1 cells [4] = assay: wound-healing assay; format: cell-based, mouse; conditions: 5-FU 5 μM
Protocol: The wound-healing assay was performed to study whether PLU can inhibit 4T1 cell migration. Briefly, 4T1 cells were seeded in 24-well plates, incubated in serum-reduced medium for 6 h, wounded in a line across the well with a 200 μL pipette tip, and washed twice with the serum-reduced medium. After different treatments, cells were incubated for 24 h to allow migration.

4T1 cells [5] = assay: chromatin condensation assay (Hoechst staining); format: cell-based, mouse; conditions: 5-FU 5 μM
Protocol: The apoptosis in 4T1 cells was assayed with Hoechst 33342 staining. The 4T1 cells were seeded in 6-well plates at a density of 5 × 10^5 cells per well in a volume of […] of culture medium. Cells were allowed to adhere for 16 h. After different treatments, cells were incubated for an additional 24 h, washed with PBS, stained with the Hoechst dye (1 μg·mL^−1) in the dark at RT for 10 min, and imaged using an inverted fluorescence microscope (Axiovert 200 M; Zeiss Axioplam, Oberkochen, Germany) at excitation and emission wavelengths (λem) of 360 and 460 nm, respectively. The apoptotic index was calculated as follows: apoptotic index = apoptotic cell number/(apoptotic cell number + nonapoptotic cell number).

T2 sequence (P20051 whole entry): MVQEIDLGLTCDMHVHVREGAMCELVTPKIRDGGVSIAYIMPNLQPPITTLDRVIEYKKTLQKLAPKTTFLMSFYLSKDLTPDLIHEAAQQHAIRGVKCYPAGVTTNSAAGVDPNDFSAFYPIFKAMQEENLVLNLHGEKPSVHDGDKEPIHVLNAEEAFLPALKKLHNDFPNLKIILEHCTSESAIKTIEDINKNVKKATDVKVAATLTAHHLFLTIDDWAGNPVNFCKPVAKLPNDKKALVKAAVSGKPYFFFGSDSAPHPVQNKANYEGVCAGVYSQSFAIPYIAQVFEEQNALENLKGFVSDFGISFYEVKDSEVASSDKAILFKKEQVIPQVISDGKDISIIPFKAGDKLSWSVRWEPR

Nc1n[nH]c(N)n1 [3,5-diamino-1,2,4-triazole]
inhibition of huDHOase (in words) (huDHOase): None of these compounds decreased the activity of huDHOase | quenching of the intrinsic fluorescence of ScDHOase (ScDHOase [1]): 3.9%

Nc1nc[nH]n1 [3-amino-1,2,4-triazole]
inhibition of huDHOase (in words) (huDHOase): None of these compounds decreased the activity of huDHOase | quenching of the intrinsic fluorescence of ScDHOase (ScDHOase [1]): 2.8%

Nc1c[nH]c(=O)[nH]c1=O [5-AU, 5-aminouracil]
λmax of ScDHOase emission (red shift) (ScDHOase [2]): from 324 to 335.5 | inhibition of huDHOase (in words) (huDHOase): did not inhibit the activity of huDHOase

O=C(O)c1[nH]c(=O)[nH]c(=O)c1F [5-FOA, 5-fluoroorotate]
decrease of the activity of huDHOase (huDHOase): 26% | IC50 (Plasmodium falciparum): 0.006 µM | quenching of the intrinsic fluorescence of ScDHOase (ScDHOase [1]): 78.2%

O=c1[nH]cc(F)c(=O)[nH]1 [5-FU, 5-fluorouracil]
Colony count (4T1 cells [3]): 54% | mortality at 24 h, 5 μM (in vitro): 27% | λmax of ScDHOase emission (red shift) (ScDHOase [2]): from 324 to 335.5 | inhibition of huDHOase (in words) (huDHOase): did not inhibit the activity of huDHOase; also recorded: cannot inhibit DHOase | Migration rate (4T1 cells [4]): 65% | Apoptotic rate (4T1 cells [5]): 26%

O=C(O)CC1NC(=O)NC1=O (stereo not shown) [5-HAA, 5-hydantoinacetic acid]
inhibition of huDHOase (in words) (huDHOase): did not inhibit huDHOase | quenching of the intrinsic fluorescence of ScDHOase (ScDHOase [1]): 1.5%

CSc1nnn[nH]1 [5-methylthio-1H-tetrazole]
inhibition of huDHOase (in words) (huDHOase): None of these compounds decreased the activity of huDHOase | quenching of the intrinsic fluorescence of ScDHOase (ScDHOase [1]): 2.3%

Cc1cn([C@H]2C[C@H](N=[N+]=[N-])[C@@H](CO)O2)c(=O)[nH]c1=O [AZT]
inhibition of huDHOase (in words) (huDHOase): did not inhibit the activity of huDHOase

CC(=O)NO [Acetohydroxamate]
quenching of the intrinsic fluorescence of ScDHOase (ScDHOase [1]): 2.5%

O=C1CCC(C(=O)O)NC(=O)N1 (stereo not shown) [DDCA, 2,7-dioxo-1,3-diazepane-4-carboxylic acid]
inhibition of huDHOase (in words) (huDHOase): did not inhibit huDHOase | quenching of the intrinsic fluorescence of ScDHOase (ScDHOase [1]): 3.0%

N=C1NC(=O)CC(C(=O)O)S1 (stereo not shown) [ITCA, 2-imino-4-oxo-1,3-thiazinane-6-carboxylic acid]
decrease of the activity of huDHOase (huDHOase): 12% | quenching of the intrinsic fluorescence of ScDHOase (ScDHOase [1]): 15.6%

CC(=O)NCCc1cnc[nH]1 [N-ω-acetylhistamine]
inhibition of huDHOase (in words) (huDHOase): None of these compounds decreased the activity of huDHOase | quenching of the intrinsic fluorescence of ScDHOase (ScDHOase [1]): 2.8%

O=C(O)CC(O)C(=O)O (stereo not shown) [malate]
decrease of the activity of huDHOase (huDHOase): 6% | quenching of the intrinsic fluorescence of ScDHOase (ScDHOase [1]): 10.9%

O=C(O)c1cc(=O)[nH]c(=O)[nH]1 [orotic acid]
Kd (ScDHOase [1]): 198.3 ± 1.2 µM | quenching of the intrinsic fluorescence of ScDHOase (ScDHOase [1]): 65.9%
